Active and inactive are the calls of the source. The rule behind the calls is not given here.
How the values were obtained:
[1] = Solubility of the compound in water; assay type: physicochemical
[2] = Solubility of the compound in plasma (unknown origin); assay type: ADME, cell-free
[3] = test system: Leishmania major; test: Antileishmanial activity against Leishmania major MON-4 intracellular amastigotes; assay type: functional, organism-based; details: Leishmania major, MON-4
[4] = test system: Leishmania donovani; test: Antileishmanial activity against Leishmania donovani MON-2 intracellular amastigotes; assay type: functional, organism-based; details: Leishmania donovani, MON-2
[5] = test system: Leishmania infantum; test: Antileishmanial activity against Leishmania infantum MON-1 promastigotes assessed as reduction in parasite viability at 100 uM measured after 48 hrs by MTT assay; assay type: functional, organism-based
[6] = Cytotoxicity against mouse L929 cells assessed as reduction in cell viability measured after 72 hrs by tryphan blue assay; assay type: cell-based; details: L929 cells
[7] = Cytotoxicity against Swiss mouse BMDM assessed as reduction in cell viability measured after 72 hrs by tryphan blue assay; assay type: cell-based; details: Swiss, BMDM
[8] = test system: Leishmania infantum; test: (§1) Antileishmanial activity against Leishmania infantum MON-1 intracellular amastigotes infected in Swiss mouse BMDM assessed as reduction in parasite load at 3.21 uM measured after 48 hrs using PLGA nanoparticle incorporated compound by Giemsa staining based optical microscopic analysis relative to control; assay type: functional; set-up: scale not given: the % may be the effect or the level left
[9] = test system: Leishmania infantum; test: as §1, with “14.3” for “3.21”, “gold” for “PLGA”; assay type: functional; set-up: scale not given: the % may be the effect or the level left
[10] = test system: BMDM; test: Cytotoxicity against Swiss mouse BMDM assessed as reduction in cell viability at 3.21 uM measured after 72 hrs using PLGA nanoparticle incorporated compound by tryphan blue assay; assay type: cell-based
[11] = test system: BMDM; test: Cytotoxicity against Swiss mouse BMDM assessed as reduction in cell viability at 14.3 uM measured after 72 hrs using gold nanoparticle incorporated compound by tryphan blue assay; assay type: cell-based
[12] = Toxicity in BALB/c mouse infected with Leishmania infantum MON-1 promastigotes assessed as biochemical alteration in plasma at 10 to 25 mg/kg, ip administered daily for 14 days starting from 28 days post infection using gold nanoparticle incorporated compound; assay type: organism-based; details: in vivo
[13] = Toxicity in BALB/c mouse infected with Leishmania infantum MON-1 promastigotes assessed as biochemical alteration in serum at 10 to 25 mg/kg, ip administered daily for 14 days starting from 28 days post infection using gold nanoparticle incorporated compound; assay type: organism-based; details: in vivo
[14] = Toxicity in BALB/c mouse infected with Leishmania infantum MON-1 promastigotes assessed as enzymatic alteration in serum at 10 to 25 mg/kg, ip administered daily for 14 days starting from 28 days post infection using gold nanoparticle incorporated compound; assay type: organism-based; details: in vivo
[15] = Toxicity in BALB/c mouse infected with Leishmania infantum MON-1 promastigotes assessed as swelling of kidney at 10 to 25 mg/kg, ip administered daily for 14 days starting from 28 days post infection using gold nanoparticle incorporated compound; assay type: organism-based; details: in vivo
[16] = Toxicity in BALB/c mouse infected with Leishmania infantum MON-1 promastigotes assessed as biochemical alteration in plasma at 10 to 25 mg/kg, ip administered daily for 14 days starting from 28 days post infection using PLGA nanoparticle incorporated compound; assay type: organism-based; details: in vivo
[17] = Toxicity in BALB/c mouse infected with Leishmania infantum MON-1 promastigotes assessed as biochemical alteration in serum at 10 to 25 mg/kg, ip administered daily for 14 days starting from 28 days post infection using PLGA nanoparticle incorporated compound; assay type: organism-based; details: in vivo
[18] = Toxicity in BALB/c mouse infected with Leishmania infantum MON-1 promastigotes assessed as swelling of liver at 10 to 25 mg/kg, ip administered daily for 14 days starting from 28 days post infection using PLGA nanoparticle incorporated compound; assay type: organism-based; details: in vivo
[19] = Toxicity in BALB/c mouse infected with Leishmania infantum MON-1 promastigotes assessed as weight loss at 10 to 25 mg/kg, ip administered daily for 14 days starting from 28 days post infection using gold nanoparticle incorporated compound; assay type: organism-based; details: in vivo
[20] = Toxicity in BALB/c mouse infected with Leishmania infantum MON-1 promastigotes assessed as weight loss at 10 to 25 mg/kg, ip administered daily for 14 days starting from 28 days post infection using PLGA nanoparticle incorporated compound; assay type: organism-based; details: in vivo
[21] = Toxicity in Swiss mouse at 500 mg/kg administered as single dose measured after 28 days; assay type: organism-based; details: in vivo, 672 h
[22] = Sub-acute toxicity in Swiss mouse at 25 to 200 mg/kg administered as for 14 days and measured on day 28; assay type: organism-based; details: in vivo, 336 h
[23] = test system: Leishmania infantum; test: (§2) Antileishmanial activity against Leishmania infantum MON-1 promastigotes infected in BALB/c mouse assessed as reduction in spleen parasite load at 10 mg/kg, ip administered daily for 14 days starting from 28 days post infection using gold nanoparticle incorporated compound measured post last dose by Taqman qRT-PCR analysis relative to control; assay type: functional; set-up: scale not given: the % may be the effect or the level left
[24] = test system: Leishmania infantum; test: as §2, with “liver” for “spleen”, “25” for “10”; assay type: functional; set-up: scale not given: the % may be the effect or the level left
[25] = test system: Leishmania infantum; test: as §2, with “liver” for “spleen”, “PLGA” for “gold”, “analysis” for “analysis relative to control”; assay type: functional, organism-based
[26] = test system: Leishmania infantum; test: as §2, with “25” for “10”, “PLGA” for “gold”; assay type: functional; set-up: scale not given: the % may be the effect or the level left
[27] = test system: Leishmania infantum; test: as §2, with “liver” for “spleen”, “25” for “10”, “PLGA” for “gold”; assay type: functional; set-up: scale not given: the % may be the effect or the level left
[28] = test system: Leishmania infantum; test: as §2, with “liver” for “spleen”, “5” for “10”, “dose in presence of meglumine antimoniate” for “dose”; assay type: functional; set-up: scale not given: the % may be the effect or the level left
[29] = test system: Leishmania infantum; test: as §2, with “liver” for “spleen”, “dose in presence of meglumine antimoniate” for “dose”; assay type: functional; set-up: scale not given: the % may be the effect or the level left
[30] = Drug metabolism in human liver microsomes assessed as compound 12 formation at 1 uM measured after 30 mins by LC-MS/MS analysis; assay type: ADME, Microsome; details: 0.5 h
[31] = Drug metabolism in human liver microsomes assessed as compound 13 formation at 1 uM measured after 30 mins by LC-MS/MS analysis; assay type: ADME, Microsome; details: 0.5 h
[32] = Drug metabolism in human liver microsomes assessed as N-oxidation of amide moiety by measuring compound 14 formation at 1 uM measured up to 60 mins by LC-MS/MS analysis; assay type: ADME, Microsome; details: 1 h
[33] = biological target: Cytochrome P450 3A4 (Homo sapiens, UniProt P08684); test: Inhibition of CYP3A4 in human liver microsomes using testosterone as substrate measured after 15 mins by LC-MS/MS analysis; assay type: ADME
[34] = biological target: Cytochrome P450 2C9 (Homo sapiens, UniProt P11712); test: Inhibition of CYP2C9 in human liver microsomes using diclofenac as substrate measured after 45 mins by LC-MS/MS analysis; assay type: ADME
[35] = Mutagenicity in Salmonella typhimurium TA98 at 10 to 75 uM measured after 5 days in presence of S9 fraction by Ames test; assay type: toxicity, subcellular; details: salmonella enterica subsp. enterica serovar typhimurium, s9, 120 h
[36] = Mutagenicity in Salmonella typhimurium TA98 at 10 to 75 uM measured after 5 days in absence of S9 fraction by Ames test; assay type: toxicity; details: salmonella enterica subsp. enterica serovar typhimurium, s9, 120 h

Sequence of Cytochrome P450 2C9 (P11712 whole entry): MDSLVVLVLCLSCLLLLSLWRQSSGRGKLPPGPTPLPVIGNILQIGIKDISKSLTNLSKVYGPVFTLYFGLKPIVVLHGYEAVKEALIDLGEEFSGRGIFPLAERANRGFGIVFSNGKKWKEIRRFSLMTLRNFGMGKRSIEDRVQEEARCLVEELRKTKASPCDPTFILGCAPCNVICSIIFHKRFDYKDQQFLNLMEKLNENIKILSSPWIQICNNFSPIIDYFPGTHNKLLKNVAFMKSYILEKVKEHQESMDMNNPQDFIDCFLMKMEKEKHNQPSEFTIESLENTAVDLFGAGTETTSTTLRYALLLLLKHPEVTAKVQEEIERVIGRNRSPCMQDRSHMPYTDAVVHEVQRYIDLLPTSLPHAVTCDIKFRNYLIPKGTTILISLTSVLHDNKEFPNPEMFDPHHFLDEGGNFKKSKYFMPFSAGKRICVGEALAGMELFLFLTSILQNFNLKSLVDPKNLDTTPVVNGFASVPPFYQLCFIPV
Sequence of Cytochrome P450 3A4 (P08684 whole entry): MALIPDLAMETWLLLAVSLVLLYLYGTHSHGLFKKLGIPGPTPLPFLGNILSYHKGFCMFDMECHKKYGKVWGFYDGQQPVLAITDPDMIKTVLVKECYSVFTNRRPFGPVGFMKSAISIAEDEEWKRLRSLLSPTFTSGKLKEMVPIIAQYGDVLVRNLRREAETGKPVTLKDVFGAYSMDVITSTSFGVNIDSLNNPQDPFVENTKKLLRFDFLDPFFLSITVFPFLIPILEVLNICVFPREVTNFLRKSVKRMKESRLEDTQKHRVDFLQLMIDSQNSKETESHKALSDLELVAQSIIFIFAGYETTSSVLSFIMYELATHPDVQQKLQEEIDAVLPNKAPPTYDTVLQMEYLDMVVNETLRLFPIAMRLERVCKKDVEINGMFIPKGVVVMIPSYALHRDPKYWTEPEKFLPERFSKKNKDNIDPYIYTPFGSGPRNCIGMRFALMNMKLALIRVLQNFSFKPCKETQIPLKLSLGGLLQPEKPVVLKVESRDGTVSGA

For O=C(CCCCCCC(=O)Nc1ccccc1)NOC(c1ccccc1)(c1ccccc1)c1ccccc1, the solubility [1] was under 100 µg/mL, the solubility [2] was “Insoluble” and the IC50 [3] was 1000 nM. The IC50 [4] was 2910 nM, the Activity [5] was “inactive” and the CC50 at 72 h [6] was over 100000 nM. For the same compound, the CC50 at 72 h [7] was over 100000 nM, the Activity [8] was 54% and the Activity [9] was 71%. The Activity [10] was “Non-Toxic”, the Activity [11] was “Non-Toxic” and the Activity [12] was “Non-Toxic”. The Activity [13] was “Non-Toxic”, the Activity [14] was “Non-Toxic” and the Activity [15] was “Non-Toxic”. The Activity [16] was “Non-Toxic”, the Activity [17] was “Non-Toxic” and the Activity [18] was “Non-Toxic”. The Activity [19] was “Non-Toxic”, the Activity [20] was “Non-Toxic” and the Activity [21] was “Non-Toxic”. For the same compound, the Activity [22] was “Non-Toxic”, the Activity [23] was 86% and the Activity [24] was 68%. For the same compound, the Activity [25] was “inactive”, the Activity [26] was 70% and the Activity [27] was 60%. For the same compound, the Activity [28] was 98%, the Activity [29] was 100% and the Drug metabolism [30] was “Metabolite_Detected”. The Drug metabolism [31] was “Metabolite_Detected”, the Drug metabolism [32] was “Metabolite_Detected” and the IC50 [33] was 5560 nM. For the same compound, the IC50 [34] was 2520 nM, the Activity [35] was “Non-Toxic” and the Activity [36] was “Non-Toxic”.

Source: ChEMBL document CHEMBL4602729, “O-Alkyl Hydroxamates Display Potent and Selective Antileishmanial Activity” (J Med Chem, 2020)
